The data set is described as follows: recombinant UMI read abundance after kanamycin selection (control-corrected) (log10(CPM+1)); higher = more efficient recombination; extreme values may be limits of the assay; sequences stand for … in AGTGCAGAGAAAATCGGCCAGTTTTCTCTGCCTGCAGTCCGCATGCCGTGGGACCCCTTGGGTTCTAACCTGTTGCCTAGATTTATGCAGCGGACTGCCTTTCTCCCAAAGTGATAAACCGG…AGGTTGGTTTCACT; site = the 11-nt donor. The essentials:
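In a pooled Escherichia coli screen for the IS621 bridge recombinase, donor and donor-binding-loop pairs were each placed with a 12-nt UMI on a plasmid bearing a promoterless kanamycin gene. This library was co-electroporated with a target plasmid encoding a fixed target and T7-inducible recombinase, and cells were plated either on IPTG (0.07 mM) plus kanamycin or without selection, in two replicates each. Recombinant UMIs were PCR-amplified across the donor–target junction and sequenced, and counts were converted to CPM, averaged over replicates, scaled by control-derived factors and reported as log10(CPM+1).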
With “GTAGGTACATGGACCGGTTTTCCCGGTAATCCGTATTTGAC (site GTAGGTACTTT)”, the “recombinant UMI read abundance (log10)” value came out at 0. The same measure for “GTAGGTACATGGACCGGTTTTCCCGGTAATCCGTATTTGAC (site GTAGGTCCTGT)”: 0; for “GTAGGTACATGGACCGGTTTTCCCGGTAATCCGTATTTGAC (site GTAGGTGCTGT)”: 2.02.

“GTAGGTACATGGACCGGTTTTCCCGGTAATCCGTATTTGAC (site GTAGGTTCTGT)”: the “recombinant UMI read abundance (log10)” value was found to be 1.76. Under “GTAGGTACATGGACCGGTTTTCCCGGTAATCCGTATTTGAC (site GTAGTTACTGT)” stands 1.2; under “GTAGGTACATGGACCGGTTTTCCCGGTAATCCGTATTTGAC (site GTATGTACTGT)”, 0.986; under “GTAGGTACATGGACCGGTTTTCCCGGTAATCCGTATTTGAC (site GTCGGTACTGT)”, 1.16. As to “GTAGGTACATGGACCGGTTTTCCCGGTAATCCGTATTTGAC (site GTGGGTACTGT)”, the “recombinant UMI read abundance (log10)” value was found to be 2.19.

On to “GTAGGTACATGGACCGGTTTTCCCGGTAATCCGTATTTGAC (site GTTGGTACTGT)”, for which the “recombinant UMI read abundance (log10)” value was 1.96. Under “GTAGGTACATGGACCGGTTTTCCCGGTAATCCGTATTTGAC (site TTAGGTACTGT)” stands 1.65. “GTAGGTACATGGACCGGTTTTCCCGGTAATCCGTATTTGAG (site GTAGGTACTAT)”: the “recombinant UMI read abundance (log10)” value worked out at 0.994. For “GTAGGTACATGGACCGGTTTTCCCGGTAATCCGTATTTGAG (site GTAGGTACTCT)”, the “recombinant UMI read abundance (log10)” value came to 1.29.

Take “GTAGGTACATGGACCGGTTTTCCCGGTAATCCGTATTTGAG (site GTAGGTACTGT)”: the “recombinant UMI read abundance (log10)” value amounted to 1.42. Turning to “GTAGGTACATGGACCGGTTTTCCCGGTAATCCGTATTTGAG (site GTAGGTACTTT)”, the “recombinant UMI read abundance (log10)” value is 0.806. “GTAGGTACATGGACCGGTTTTCCCGGTAATCCGTATTTGAT (site GTAGGTACTAT)”: the “recombinant UMI read abundance (log10)” value was determined as 1.87. In the case of “GTAGGTACATGGACCGGTTTTCCCGGTAATCCGTATTTGAT (site GTAGGTACTCT)”, the “recombinant UMI read abundance (log10)” value came out at 0.18. “GTAGGTACATGGACCGGTTTTCCCGGTAATCCGTATTTGAT (site GTAGGTACTGT)”: the “recombinant UMI read abundance (log10)” value stood at 0.596. Take “GTAGGTACATGGACCGGTTTTCCCGGTAATCCGTATTTGAT (site GTAGGTACTTT)”: the “recombinant UMI read abundance (log10)” value was 0.00769. In the case of “GTAGTACCATGGACCGGTTTTCCCGGTAATCCGTATTTGAC (site CTAGTATCTGT)”, the “recombinant UMI read abundance (log10)” value amounted to 0. For the sequence “GTAGTACCATGGACCGGTTTTCCCGGTAATCCGTATTTGAC (site GTAGTACCTGT)”, the “recombinant UMI read abundance (log10)” value was 0.

Turning to “GTAGTCACATGGACCGGTTTTCCCGGTAATCCGTATTTGCG (site GTAGTCACTCG)”, the “recombinant UMI read abundance (log10)” value was 2.1. For “GTAGTCACATGGACCGGTTTTCCCGGTAATCCGTATTTGCG (site GTAGTCCCTCG)”, the “recombinant UMI read abundance (log10)” value turned out to be 0.0197.

Consider “GTAGTCACATGGACCGGTTTTCCCGGTAATCCGTATTTGCG (site GTAGTCGCTCG)”, for which the “recombinant UMI read abundance (log10)” value was 1.67.

For the sequence “GTAGTCACATGGACCGGTTTTCCCGGTAATCCGTATTTGCG (site GTAGTCTCTCG)”, the “recombinant UMI read abundance (log10)” value worked out at 2.62. As for “GTAGTGGCATGGACCGGTTTTCCCGGTAATCCGTATTTGCG (site GTAGTAGCTCG)”, the “recombinant UMI read abundance (log10)” value turned out to be 2.37.

Turning to “GTAGTGGCATGGACCGGTTTTCCCGGTAATCCGTATTTGCG (site GTAGTCGCTCG)”, the “recombinant UMI read abundance (log10)” value was determined as 1.25. Regarding “GTAGTGGCATGGACCGGTTTTCCCGGTAATCCGTATTTGCG (site GTAGTGGCTCG)”, the “recombinant UMI read abundance (log10)” value turned out to be 2.18.

Turning to “GTAGTGGCATGGACCGGTTTTCCCGGTAATCCGTATTTGCG (site GTAGTTGCTCG)”, the “recombinant UMI read abundance (log10)” value stood at 2.06. Regarding “GTATACCCATGGACCGGTTTTCCCGGTAATCCGTATTTGTC (site GTATACCCTGA)”, the “recombinant UMI read abundance (log10)” value worked out at 1.03. “GTATAGTCATGGACCGGTTTTCCCGGTAATCCGTATTTGGT (site GTATAGTCTAC)”: the “recombinant UMI read abundance (log10)” value amounted to 2.67. With “GTATCGTCATGGACCGGTTTTCCCGGTAATCCGTATTTGTC (site GTATCGTCTGA)”, the “recombinant UMI read abundance (log10)” value was found to be 3.21.

Regarding “GTATGACCATGGACCGGTTTTCCCGGTAATCCGTATTTGGC (site GTATGACCTGC)”, the “recombinant UMI read abundance (log10)” value was 0. As to “GTATGCACATGGACCGGTTTTCCCGGTAATCCGTATTTGAA (site GTATGCACTTA)”, the “recombinant UMI read abundance (log10)” value amounted to 0.217. Under “GTATGCACATGGACCGGTTTTCCCGGTAATCCGTATTTGAA (site GTATGCACTTC)” stands 0.0775; under “GTATGCACATGGACCGGTTTTCCCGGTAATCCGTATTTGAA (site GTATGCACTTG)”, 0.0145; under “GTATGCACATGGACCGGTTTTCCCGGTAATCCGTATTTGAA (site GTATGCACTTT)”, 1.53. Regarding “GTATGCGCATGGACCGGTTTTCCCGGTAATCCGTATTTGAA (site GTATGCGCTTT)”, the “recombinant UMI read abundance (log10)” value was determined as 1.66.

Turning to “GTATGCGCATGGACCGGTTTTCCCGGTAATCCGTATTTGTA (site GTATGCACTTA)”, the “recombinant UMI read abundance (log10)” value was 1.8. In the case of “GTATGCGCATGGACCGGTTTTCCCGGTAATCCGTATTTGTA (site GTATGCCCTTA)”, the “recombinant UMI read abundance (log10)” value is 0.772. Regarding “GTATGCGCATGGACCGGTTTTCCCGGTAATCCGTATTTGTA (site GTATGCGCTTA)”, the “recombinant UMI read abundance (log10)” value was 2.35. Consider “GTATGCGCATGGACCGGTTTTCCCGGTAATCCGTATTTGTA (site GTATGCTCTTA)”, for which the “recombinant UMI read abundance (log10)” value was found to be 1.33. Take “GTATGGACATGGACCGGTTTTCCCGGTAATCCGTATTTGTA (site GTATGAACTTA)”: the “recombinant UMI read abundance (log10)” value amounted to 2.39. In the case of “GTATGGACATGGACCGGTTTTCCCGGTAATCCGTATTTGTA (site GTATGCACTTA)”, the “recombinant UMI read abundance (log10)” value was 0.0152. Under “GTATGGACATGGACCGGTTTTCCCGGTAATCCGTATTTGTA (site GTATGGACTTA)” stands 1.9; under “GTATGGACATGGACCGGTTTTCCCGGTAATCCGTATTTGTA (site GTATGTACTTA)”, 0.44; under “GTCACAACATGGACCGGTTTTCCCGGTAATCCGTATTTGAC (site GTCACAACTGT)”, 1.36.

Take “GTCACGACATGGACCGGTTTTCCCGGTAATCCGTATTTGAC (site GTCACGACTGT)”: the “recombinant UMI read abundance (log10)” value turned out to be 1.96. The same measure for “GTCAGAACATGGACCGGTTTTCCCGGTAATCCGTATTTGAT (site GTCAGAACTAT)”: 2.16.

Regarding “GTCAGACCATGGACCGGTTTTCCCGGTAATCCGTATTTGGT (site GTCAGACCTAC)”, the “recombinant UMI read abundance (log10)” value is 0.

For the sequence “GTCCAAGCATGGACCGGTTTTCCCGGTAATCCGTATTTGAG (site ATCCAAGCTCT)”, the “recombinant UMI read abundance (log10)” value was found to be 0.677. In the case of “GTCCAAGCATGGACCGGTTTTCCCGGTAATCCGTATTTGAG (site CTCCAAGCTCT)”, the “recombinant UMI read abundance (log10)” value came to 0. As for “GTCCAAGCATGGACCGGTTTTCCCGGTAATCCGTATTTGAG (site GTCCAAGCTCT)”, the “recombinant UMI read abundance (log10)” value came to 0.618. Turning to “GTCCAAGCATGGACCGGTTTTCCCGGTAATCCGTATTTGAG (site TTCCAAGCTCT)”, the “recombinant UMI read abundance (log10)” value came out at 0.088. On to “GTCCACCCATGGACCGGTTTTCCCGGTAATCCGTATTTGTT (site GACCACCCTAA)”, for which the “recombinant UMI read abundance (log10)” value stood at 0.0143. For “GTCCACCCATGGACCGGTTTTCCCGGTAATCCGTATTTGTT (site GCCCACCCTAA)”, the “recombinant UMI read abundance (log10)” value worked out at 0.0129.

For “GTCCACCCATGGACCGGTTTTCCCGGTAATCCGTATTTGTT (site GGCCACCCTAA)”, the “recombinant UMI read abundance (log10)” value was found to be 0.0212. Under “GTCCACCCATGGACCGGTTTTCCCGGTAATCCGTATTTGTT (site GTCCACCCTAA)” stands 0.0175; under “GTCCATTCATGGACCGGTTTTCCCGGTAATCCGTATTTGCT (site GTCCATTCTAG)”, 0.671; under “GTCCCCGCATGGACCGGTTTTCCCGGTAATCCGTATTTGAG (site GTCCCCGCTCT)”, 0.468.

Regarding “GTCCCGTCATGGACCGGTTTTCCCGGTAATCCGTATTTGGT (site GTCCCGTCTAC)”, the “recombinant UMI read abundance (log10)” value was determined as 0.849.

For “GTCGACCCATGGACCGGTTTTCCCGGTAATCCGTATTTGAG (site GTCGACCCTCT)”, the “recombinant UMI read abundance (log10)” value was found to be 0.0157. “GTCGGTCCATGGACCGGTTTTCCCGGTAATCCGTATTTGTA (site GTCGGTCCTTA)”: the “recombinant UMI read abundance (log10)” value was determined as 0.0236. Take “GTCGTTCCATGGACCGGTTTTCCCGGTAATCCGTATTTGGT (site GTAGTTCCTAC)”: the “recombinant UMI read abundance (log10)” value amounted to 0. With “GTCGTTCCATGGACCGGTTTTCCCGGTAATCCGTATTTGGT (site GTCGTTCCTAC)”, the “recombinant UMI read abundance (log10)” value is 0.0042. With “GTCGTTCCATGGACCGGTTTTCCCGGTAATCCGTATTTGGT (site GTGGTTCCTAC)”, the “recombinant UMI read abundance (log10)” value turned out to be 0.0048. Turning to “GTCGTTCCATGGACCGGTTTTCCCGGTAATCCGTATTTGGT (site GTTGTTCCTAC)”, the “recombinant UMI read abundance (log10)” value was determined as 0.00325. Turning to “GTCTGACCATGGACCGGTTTTCCCGGTAATCCGTATTTGAG (site CAGGCTGCTTA)”, the “recombinant UMI read abundance (log10)” value was determined as 0.0145. As for “GTCTGCCCATGGACCGGTTTTCCCGGTAATCCGTATTTGAG (site GTCTGCCCTCT)”, the “recombinant UMI read abundance (log10)” value is 0.0162.

For the origin of these results see the supplement of paper PMC11208160.
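Further: IS621 bridge recombinase in Escherichia coli cells against a fixed T5 target plasmid.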
